# Experimental data reported in US12465603B2, “Phthalazinone based modulators for the treatment of disease” (Soley Therapeutics, Inc., priority 2022, dated 2025).
# Assays:
# [1] = tested on: PA1 (ECACC, 90013101) cells; test: Cell viability assay (Cell Titre Glo, 72 hours) in PA1 cells; format: cell-based; settings: Homo sapiens, PA-1
# Procedure, shortened: (§1)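 10-point dose response, top final concentration 30 μM, 1 in 3 dilutions; 5000 cells per well added directly to compound. Incubated 72 hours at 37° C, 5% CO2, then viability read by Cell Titre Glo luminescence and IC50 curves fitted.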
# [2] = tested on: A2058 (ATCC, CRL-11147) cells; test: Cell viability assay (Cell Titre Glo, 72 hours) in A2058 cells; format: cell-based; settings: Homo sapiens
# Procedure, shortened: as §1
Compound,IC50 [1],IC50 [2]
CC(C)c1cncc(N2CCN(C(=O)c3nn(C)c(=O)c4ccccc34)CC2)c1 [Compound 204],> 20 µM,> 20 µM
Cc1cc(C)cc(N2CCN(C(=O)c3nn(C)c(=O)c4ccccc34)CC2)c1 [Compound 205],≤ 1 µM,≤ 1 µM
Cn1nc(C(=O)N2CCN(c3cc(C#N)cc(C4CC4)c3)CC2)c2ccccc2c1=O [Compound 206],≤ 1 µM,≤ 1 µM
CCn1nc(C(=O)N2CCN(c3cccc(C#N)c3)CC2)c2ccccc2c1=O [Compound 207],≤ 1 µM,≤ 1 µM
Cc1cncc(N2CCN(C(=O)c3nn(C)c(=O)c4ccc(F)cc34)CC2)c1C [Compound 208],≤ 1 µM,1 to 10 µM
CC(C)c1cncc(N2CCN(C(=O)c3nn(C)c(=O)c4ccc(F)cc34)CC2)c1 [Compound 209],10 to 20 µM,10 to 20 µM
CCc1cncc(N2CCN(C(=O)c3nn(C)c(=O)c4ccc(F)cc34)CC2)c1 [Compound 210],≤ 1 µM,1 to 10 µM
Cc1ccc(C#N)cc1N1CCN(C(=O)c2nn(C)c(=O)c3ccc(F)cc23)CC1 [Compound 211],≤ 1 µM,≤ 1 µM
Cn1nc(C(=O)N2CCN(c3cc(F)cc(C#N)c3)CC2)c2cc(F)ccc2c1=O [Compound 212],≤ 1 µM,≤ 1 µM
COc1cc(C#N)cc(N2CCN(C(=O)c3nn(C)c(=O)c4ccc(F)cc34)CC2)c1 [Compound 213],≤ 1 µM,≤ 1 µM
Cc1cc(C#N)cc(N2CCN(C(=O)c3nn(C)c(=O)c4ccncc34)CC2)c1 [Compound 214],≤ 1 µM,1 to 10 µM
Cc1cc(C)cc(N2CCN(C(=O)c3nn(C)c(=O)c4ccncc34)CC2)c1 [Compound 215],≤ 1 µM,1 to 10 µM
COc1cc(C#N)cc(N2CCN(C(=O)c3nn(C)c(=O)c4ccncc34)CC2)c1 [Compound 216],≤ 1 µM,≤ 1 µM
COc1cc(C)cc(N2CCN(C(=O)c3nn(C)c(=O)c4ccncc34)CC2)c1 [Compound 217],≤ 1 µM,≤ 1 µM
Cn1nc(C(=O)N2CCN(c3cc(Cl)cc(Cl)c3)CC2)c2cnccc2c1=O [Compound 218],≤ 1 µM,≤ 1 µM
Cn1nc(C(=O)N2CCN(c3cccc(C#N)c3)CC2)c2cnccc2c1=O [Compound 219],1 to 10 µM,1 to 10 µM
Cn1nc(C(=O)N2CCN(c3cc(F)cc(C#N)c3)CC2)c2cnccc2c1=O [Compound 220],1 to 10 µM,1 to 10 µM
Cc1cc(Cl)cc(N2CCN(C(=O)c3nn(C)c(=O)c4ccncc34)CC2)c1 [Compound 221],≤ 1 µM,≤ 1 µM
Cn1nc(C(=O)N2CCN(c3cc(F)cc(Cl)c3)CC2)c2cnccc2c1=O [Compound 222],≤ 1 µM,≤ 1 µM
Cn1nc(C(=O)N2CCN(c3cc(Cl)cc(C#N)c3)CC2)c2cnccc2c1=O [Compound 223],≤ 1 µM,1 to 10 µM
"COc1cc(C#N)cc(N2CCN(C(=O)c3nn(C)c(=O)c4ccccc34)CC2)c1 [Compound 224, 3-methoxy-5-(4-(3-methyl-4-oxo-3,4-dihydrophthalazine-1-carbonyl)piperazin-1-yl)benzonitrile]",≤ 1 µM,≤ 1 µM
Cn1nc(C(=O)N2CCN(c3cc(Cl)cc(C#N)c3)CC2)c2ccccc2c1=O [Compound 225],≤ 1 µM,≤ 1 µM
Cn1nc(C(=O)N2CCN(c3cncc(C#N)c3)CC2)c2ccccc2c1=O [Compound 226],> 20 µM,> 20 µM

Compound,IC50 [1],IC50 [2]
Cn1nccc1N1CCN(C(=O)c2nn(C)c(=O)c3ccccc23)CC1 [Compound 227],> 20 µM,> 20 µM
Cn1nc(C(=O)N2CCN(c3cccc(C#N)n3)CC2)c2ccccc2c1=O [Compound 228],1 to 10 µM,10 to 20 µM
"Cn1nc(C(=O)N2CCN(c3cc(C#N)ccc3Cl)CC2)c2ccccc2c1=O [Compound 229, 4-chloro-3-(4-(3-methyl-4-oxo-3,4-dihydrophthalazine-1-carbonyl)piperazin-1-yl)benzonitrile]",≤ 1 µM,≤ 1 µM
"Cn1nc(C(=O)N2CCN(c3cc(C#N)cc(C#N)c3)CC2)c2ccccc2c1=O [Compound 230, 5-(4-(3-methyl-4-oxo-3,4-dihydrophthalazine-1-carbonyl)piperazin-1-yl)isophthalonitrile]",≤ 1 µM,1 to 10 µM
"Cn1nc(C(=O)N2CCN(c3cccc4nccn34)CC2)c2ccccc2c1=O [Compound 231, 4-(4-(imidazo[1,2-a]pyridin-5-yl)piperazine-1-carbonyl)-2-methylphthalazin-1(2H)-one]",> 20 µM,> 20 µM
"Cn1nc(C(=O)N2CCN(c3cnccc3C3CC3)CC2)c2cc(F)ccc2c1=O [Compound 232, 4-(4-(4-cyclopropylpyridin-3-yl)piperazine-1-carbonyl)-6-fluoro-2-methylphthalazin-1(2H)-one]",≤ 1 µM,≤ 1 µM
COc1c(F)cncc1N1CCN(C(=O)c2nn(C)c(=O)c3ccc(F)cc23)CC1 [Compound 233],≤ 1 µM,1 to 10 µM
"Cn1nc(C(=O)N2CCN(c3cncc(C#N)c3)CC2)c2cc(F)ccc2c1=O [Compound 234, 5-(4-(7-fluoro-3-methyl-4-oxo-3,4-dihydrophthalazine-1-carbonyl)piperazin-1-yl)nicotinonitrile]",> 20 µM,> 20 µM
Cc1cc(C#N)cc(N2CCN(C(=O)c3nn(C)c(=O)c4ccc(F)cc34)CC2)c1 [Compound 235],≤ 1 µM,≤ 1 µM
"CCn1nc(C(=O)N2CCN(c3cnccc3OC)CC2)c2cc(F)ccc2c1=O [Compound 236, 2-ethyl-6-fluoro-4-(4-(4-methoxypyridin-3-yl)piperazine-1-carbonyl)phthalazin-1(2H)-one]",≤ 1 µM,≤ 1 µM
CCn1nc(C(=O)N2CCN(c3cc(Cl)cc(C#N)c3)CC2)c2cc(F)ccc2c1=O [Compound 237],≤ 1 µM,≤ 1 µM
CCn1nc(C(=O)N2CCN(c3cncc(C)c3)CC2)c2cc(F)ccc2c1=O [Compound 238],≤ 1 µM,≤ 1 µM
CCn1nc(C(=O)N2CCN(c3cc(F)cc(C#N)c3)CC2)c2cc(F)ccc2c1=O [Compound 239],≤ 1 µM,≤ 1 µM
CCn1nc(C(=O)N2CCN(c3cccc(C#N)c3)CC2)c2cc(F)ccc2c1=O [Compound 240],≤ 1 µM,≤ 1 µM
"CCn1nc(C(=O)N2CCN(c3cc(F)cc(C#N)c3)CC2)c2cnccc2c1=O [Compound 241, 3-(4-(2-ethyl-1-oxo-1,2-dihydropyrido[3,4-d]pyridazine-4-carbonyl)piperazin-1-yl)-5-fluorobenzonitrile]",≤ 1 µM,≤ 1 µM
CCn1nc(C(=O)N2CCN(c3cc(C#N)ccc3C3CC3)CC2)c2cnccc2c1=O [Compound 242],≤ 1 µM,≤ 1 µM
CCn1nc(C(=O)N2CCN(c3cnccc3OC)CC2)c2cnccc2c1=O [Compound 243],≤ 1 µM,1 to 10 µM
CCn1nc(C(=O)N2CCN(c3cc(Cl)cc(C#N)c3)CC2)c2cnccc2c1=O [Compound 244],≤ 1 µM,≤ 1 µM
"Cc1cncc(N2CCN(C(=O)c3nn(C)c(=O)c4ccc(Cl)cc34)CC2)c1 [Compound 245, 6-chloro-2-methyl-4-(4-(5-methylpyridin-3-yl)piperazine-1-carbonyl)phthalazin-1(2H)-one]",10 to 20 µM,> 20 µM
"COc1ccncc1N1CCN(C(=O)c2nn(C)c(=O)c3ccc(Cl)cc23)CC1 [Compound 246, 6-chloro-4-(4-(4-methoxypyridin-3-yl)piperazine-1-carbonyl)-2-methylphthalazin-1(2H)-one]",≤ 1 µM,1 to 10 µM
"COc1ccccc1C1=CCN(C(=O)c2nn(C)c(=O)c3ccccc23)CC1 [Compound 247, 4-(4-(2-methoxyphenyl)-1,2,3,6-tetrahydropyridine-1-carbonyl)-2-methylphthalazin-1(2H)-one]",≤ 1 µM,≤ 1 µM
"COc1ccc(C2(C)CCN(C(=O)c3nn(C)c(=O)c4ccccc34)CC2)cc1 [Compound 248, 4-(4-(4-methoxyphenyl)-4-methylpiperidine-1-carbonyl)-2-methylphthalazin-1(2H)-one]",10 to 20 µM,1 to 10 µM
"COc1ccccc1C1(C)CCN(C(=O)c2nn(C)c(=O)c3ccccc23)CC1 [Compound 249, 4-(4-(2-methoxyphenyl)-4-methylpiperidine-1-carbonyl)-2-methylphthalazin-1(2H)-one]",1 to 10 µM,1 to 10 µM
